Assay results reported in patent publication US20100168055A1, “COMBINATION OF MONOSACCHARIDE WITH C-GLYCOSIDE DERIVATIVE AND USE THEREOF” (L'OREAL, priority 2008, published 2010).

Legend:
[1] = tested on: keratinocytes (HaCat line); assay: Keratinocyte proliferation in culture medium deficient in growth factors (Cyquant, Nile red, XTT probes); type: cell-based
Experimental: The keratinocytes (HaCat line) are cultured under two conditions: whole defined culture medium (standard condition) and culture medium deficient in growth factors. This deficient medium gives rise to a controlled delay in cell proliferation. Under these conditions, it is then possible to measure the effects of compounds capable of compensating for the deficiency in growth factors of the culture medium and thus of relaunching the cell multiplication and/or of stimulating cell metabolism.
The keratinocyte proliferation is measured by means of three markers on the same cell population: the level of DNA, which is proportional to the number of cells (Cyquant probe), the level of constituent polar lipids of cell membranes (Nile red probe) and the mitochondrial respiration, which reflects the general cell metabolism (XTT probe).

[2] = tested on: dermal fibroblasts of the reconstructed skin; assay: Count of dermal fibroblasts in whole reconstructed skin (propidium iodide staining of frozen sections); type: cell-based, human; details: 5 mM; within 48 hours of treatment
Excerpt: Rhamnose was studied on a model of whole reconstructed skin in order to measure its anti-aging efficacy on the dermal compartment.
Briefly, the model of reconstructed skin used is that described by Bell et al. (Bell E. et al., The reconstitution of living skin, J. Invest. Dermatol., 1983, July; 81): it includes a dermal equivalent on which is reconstructed a multistratified epidermis; the dermal equivalent is manufactured from acid-soluble collagen, culture medium containing serum and normal adult human fibroblasts. After 5 days of shrinkage, this equivalent is inoculated with keratinocytes and then cultured for 6 days in immersion and for 7 days in emersion in order to obtain a multistratified and differentiated epidermis having a horny layer.
The reconstructed skin is treated with 5 mM rhamnose for 2 days and 5 days in the culture medium; after the treatment, the reconstructed skins are included in Tissue Tek in order to produce frozen sections 7 μm thick with a cryostat. […] Three frozen sections are prepared at random on each reconstructed skin; on each section, two microscopic fields (25× objective lens) are analysed by fluorescence microscopy and photographed. The dermal fibroblasts are thus counted for each reconstructed skin on six images in total representing the six microscopic fields considered. […]

type I procollagen = assay: Indirect immunofluorescence detection of type I procollagen in the dermis of reconstructed skin; type: cell-based, human
Experimental: Conventional detection via indirect immunofluorescence of type I procollagen in the dermis of the reconstructed skin was also performed on other series of frozen sections (anti-procoll 1 antibody (MAB 1912 Millipore)+FTIC-coupled conjugate (112-095-068 Jackson Immunoresearch)). In order to obtain bearings within the cutaneous architecture during the microscopic examination of the sections, the cell nuclei of the keratinocytes and fibroblasts are localized by staining them with propidium iodide, as described above. Three frozen sections are prepared at random on each reconstructed skin and on each section, and two microscopic fields (25× objective lens) are analysed by fluorescence microscopy and photographed. The levels of fluorescence proportional to the amount of type I procollagen are compared between the control skin and the skin treated with rhamnose.

[3] = 1 mM, HaCat keratinocytes in medium depleted in growth factors, vs untreated control

## C[C@H](O)[C@H](O)[C@@H](O)[C@@H](O)C=O [rhamnose, L-rhamnose]
[1]; 500 μM, medium depleted in growth factors
  efficacy on keratinocyte proliferation: already show efficacy
[1]; [3]
  level of DNA (Cyquant): significantly increased
  level of polar lipids (Nile red signal): significantly increased
  mitochondrial respiration (XTT signal): significantly increased
[1]; keratinocytes cultured in medium depleted in growth factor
  number of cells compared with an untreated control (keratinocyte proliferation): higher number of cells
[2]
  growth of the dermal fibroblasts of the reconstructed skin: stimulation of growth
Type I procollagen; 1 mM for 120 hours, reconstructed skin
  synthesis of type I procollagen by the fibroblasts: greatly stimulated
Type I procollagen; 1 mM for 120 hours, reconstructed skin section
  green fluorescence (proportional to amount of type I procollagen) compared with control skin: marked increase
Type I procollagen; 1 mM, reconstructed skin
  procollagen 1 synthesis: stimulation
Type I procollagen; 5 mM, reconstructed skin
  procollagen 1 synthesis: stimulation
